Values belong to the compound of their own block, whether it stands above or below them.
What was measured:
CCK2R [1] = molecular target: T1, CCK2R (Homo sapiens, UniProt P32239); assay: Competitive binding (FACS) on CCK2R-transfected HEK 293T cells with Cy5-labeled Z360; conditions: HEK 293T transfected, Cy5-labeled Z360 competitive ligand (Table 3)
T1 construct: expressed in transfected cells; host or cells: HEK 293T cells
T1 sequence (P32239 1-447): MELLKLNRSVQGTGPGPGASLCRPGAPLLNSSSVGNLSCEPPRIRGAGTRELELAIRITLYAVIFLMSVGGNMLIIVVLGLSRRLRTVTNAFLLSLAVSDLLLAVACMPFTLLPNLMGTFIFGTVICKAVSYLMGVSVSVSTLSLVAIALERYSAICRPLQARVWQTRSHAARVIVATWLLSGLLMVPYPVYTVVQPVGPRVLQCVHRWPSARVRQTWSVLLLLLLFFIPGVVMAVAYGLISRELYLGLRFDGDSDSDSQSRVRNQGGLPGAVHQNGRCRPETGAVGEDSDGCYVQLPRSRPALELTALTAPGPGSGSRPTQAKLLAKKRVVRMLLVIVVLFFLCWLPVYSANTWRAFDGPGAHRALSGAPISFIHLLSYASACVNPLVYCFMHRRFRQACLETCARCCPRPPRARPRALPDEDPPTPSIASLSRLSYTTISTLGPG
Method: (§1) Binding Affinity Tested by Using Cy5-Labled Competitive Ligands.
(§2) HEK 293T cells were transfected with SSTR2 or CCK2R-expressing plasmid by Lipofectamine 2000 reagent. 24 hours after transfection, cells were harvested and suspended with assay buffer (1% OVA in DMEM). […] The testing compound was further supplemented into the wells at different concentrations. After incubation for 1 hour at dark, cells were washed and suspended in FACS buffer (1% OVA in DPBS). The fluorescent signal was detected by FACS machine and the binding affinity of the testing compound was evaluated by calculation of IC50 for competitive binding of reference compound.

SSTR2 [2] = molecular target: T2, SSTR2 (Rattus norvegicus, UniProt P30680); assay: Competitive cell-binding assay on AR42J cells with 125I-C1 as competitive ligand; conditions: AR42J cells, 125I-C1 competitive ligand, 37° C. 1 h; read-out: SSTR2/IC50
T2 construct: host or cells: AR42J cells
T2 sequence (P30680 whole entry): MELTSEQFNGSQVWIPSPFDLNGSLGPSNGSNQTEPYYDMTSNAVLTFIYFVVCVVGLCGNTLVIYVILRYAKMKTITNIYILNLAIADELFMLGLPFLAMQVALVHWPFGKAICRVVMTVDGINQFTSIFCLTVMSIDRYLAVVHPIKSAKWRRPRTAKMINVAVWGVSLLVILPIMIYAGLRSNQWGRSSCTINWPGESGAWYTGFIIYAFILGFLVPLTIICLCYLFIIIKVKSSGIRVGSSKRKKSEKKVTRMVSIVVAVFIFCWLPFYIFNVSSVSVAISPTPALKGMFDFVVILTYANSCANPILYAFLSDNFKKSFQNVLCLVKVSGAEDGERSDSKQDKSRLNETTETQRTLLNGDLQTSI
Outline: (§3)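 Displacement of 125I-C1 or 125I-C3 tracer (0.02 μCi/well) by 0-10000 nM compound measured in triplicate on suspended AR42J cells in BSA-containing RPMI-1640, 37° C. for 1 h. After filtration washes, filter-bound counts gave IC50 via nonlinear regression fit.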

in vivo = conditions: BALB/c nude, mouse, in vivo, iv, total radioactivity
Outline: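 Tissue uptake given as % ID and % ID/g from γ counting of organs taken 4, 24 and 72 h after injection into BALB/c nude mice carrying subcutaneous AR42J xenografts (0.05-0.50 g). Tracers were ^177Lu-labelled at 95° C for 15 min in pH 4.5 NaOAc buffer and used neat or diluted in PBS containing 3 mg/mL ascorbate.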

CCK2R [3] = molecular target: T3, CCK2R (Rattus norvegicus, UniProt P30553); assay: Competitive cell-binding assay on AR42J cells with 125I-C3 as competitive ligand; conditions: AR42J cells, 125I-C3 competitive ligand, 37° C. 1 h; read-out: CCK2R/IC50
T3 construct: host or cells: AR42J cells
T3 sequence (P30553 1-452): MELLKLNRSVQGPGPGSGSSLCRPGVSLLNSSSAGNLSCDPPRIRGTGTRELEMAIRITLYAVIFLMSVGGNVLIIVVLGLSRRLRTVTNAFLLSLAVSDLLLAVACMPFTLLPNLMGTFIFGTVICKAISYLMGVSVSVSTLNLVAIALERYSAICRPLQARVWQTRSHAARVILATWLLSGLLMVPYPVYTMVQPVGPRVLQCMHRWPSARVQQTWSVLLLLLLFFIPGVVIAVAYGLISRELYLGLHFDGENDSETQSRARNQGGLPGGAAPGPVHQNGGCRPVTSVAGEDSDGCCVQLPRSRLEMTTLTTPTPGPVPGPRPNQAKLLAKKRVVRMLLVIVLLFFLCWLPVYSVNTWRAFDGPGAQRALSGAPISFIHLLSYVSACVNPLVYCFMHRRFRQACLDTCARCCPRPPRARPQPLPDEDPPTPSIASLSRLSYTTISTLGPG
Outline: as §3

SSTR2 [4] = molecular target: T4, SSTR2 (Homo sapiens, UniProt P30874); assay: Competitive binding (FACS) on SSTR2-transfected HEK 293T cells with Cy5-labled DOTA-TATE; conditions: HEK 293T transfected, Cy5-labled DOTA-TATE competitive ligand (Table 4)
T4 construct: expressed in transfected cells; host or cells: HEK 293T cells
T4 sequence (P30874 whole entry, species assumed): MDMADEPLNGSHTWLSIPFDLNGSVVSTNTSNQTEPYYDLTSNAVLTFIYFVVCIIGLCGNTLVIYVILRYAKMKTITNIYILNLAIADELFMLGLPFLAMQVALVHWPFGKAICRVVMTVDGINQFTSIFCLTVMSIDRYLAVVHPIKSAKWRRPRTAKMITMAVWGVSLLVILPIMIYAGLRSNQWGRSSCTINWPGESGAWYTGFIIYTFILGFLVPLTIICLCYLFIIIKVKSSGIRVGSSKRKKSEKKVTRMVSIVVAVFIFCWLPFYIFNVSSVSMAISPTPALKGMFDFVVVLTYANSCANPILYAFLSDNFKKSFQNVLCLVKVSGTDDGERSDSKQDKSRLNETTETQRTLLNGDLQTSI
Method: as §1, §2

CCK2R [5] = molecular target: T1, CCK2R; assay: Competitive binding (FACS) on CCK2R-transfected HEK 293T cells with Cy5-labeled F11N derivative; conditions: Cy5-labeled F11N derivative competitive ligand (Table 4)
[6] = HEK 293T transfected, read-out: CCK2R IC50

SMILES: C[C@@H](O)[C@H](NC(=O)[C@@H]1CSSC[C@H](NC(=O)[C@@H](Cc2ccccc2)NC(=O)COCCOCCNC(=O)[C@H](CCCCNC(=O)c2cccc(NC(=O)N[C@@H]3CN(C4CCCCC4)c4ccccc4N(CC(=O)C(C)(C)C)C3=O)c2)NC(=O)CN2CCN(CC(=O)O)CCN(CC(=O)O)CCN(CC(=O)O)CC2)C(=O)N[C@@H](Cc2ccc(O)cc2)C(=O)N[C@H](Cc2c[nH]c3ccccc23)C(=O)N[C@@H](CCCCN)C(=O)N[C@@H]([C@@H](C)O)C(=O)N1)C(=O)O [Compound I-37, DOTA-K(Z360)-OEG-f[CYwKTC]T-OH]
IC50 (CCK2R [1]): 10.7 nM
IC50 (SSTR2 [2]): 3.01 nM
tissue uptake at 24 h (in vivo; uptake Kidney): 7.79 %ID/g
tissue uptake at 24 h (in vivo; uptake Liver): 2.4 %ID/g
tissue uptake at 24 h (in vivo; uptake Pancreas): 0.68 %ID/g
tissue uptake at 24 h (in vivo; uptake Spleen): 0.2 %ID/g
tissue uptake at 24 h (in vivo; uptake Stomach): 2.58 %ID/g
tissue uptake at 24 h (in vivo; uptake Tumor): 23.1 %ID/g
IC50 (CCK2R [3]): 4.2 nM

SMILES: C[C@@H](O)[C@H](NC(=O)[C@@H]1CSSC[C@H](NC(=O)[C@@H](Cc2ccccc2)C(=O)C(=O)COCCOCCNC(=O)[C@H](CCCCCC(=O)COCCOCCNC(=O)[C@H](Cc2c[nH]cn2)NC(=O)[C@H](CCC(=O)O)NC(=O)c2cccc(NC(=O)N[C@@H]3CN(C4CCCCC4)c4ccccc4N(CC(=O)C(C)(C)C)C3=O)c2)NC(=O)CN2CCN(CC(=O)O)CCN(CC(=O)O)CCN(CC(=O)O)CC2)C(=O)N[C@@H](Cc2ccc(O)cc2)C(=O)N[C@H](Cc2c[nH]c3ccccc23)C(=O)N[C@@H](CCCCN)C(=O)N[C@@H]([C@@H](C)O)C(=O)C1)C(=O)O [Compound I-79, DOTA- K(-OEG- His- Glu- Z360)- OEG- f[CYwKTC]T- OH]
IC50 (SSTR2 [4]): 6.75 nM
IC50 (CCK2R [5]; CCK2R IC50, HEK 293T transfected): 16.5 nM

SMILES: C[C@@H](O)[C@H](NC(=O)[C@@H]1CSSC[C@H](NC(=O)[C@@H](Cc2ccccc2)NC(=O)COCCOCCNC(=O)[C@H](CCCCNC(=O)COCCOCCNC(=O)[C@H](CCC(=O)O)NC(=O)c2cccc(NC(=O)N[C@@H]3CN(C4CCCCC4)c4ccccc4N(CC(=O)C(C)(C)C)C3=O)c2)NC(=O)CN2CCN(CC(=O)O)CCN(CC(=O)O)CCN(CC(=O)O)CC2)C(=O)N[C@@H](Cc2ccc(O)cc2)C(=O)N[C@H](Cc2c[nH]c3ccccc23)C(=O)N[C@@H](CCCCN)C(=O)N[C@@H]([C@@H](C)O)C(=O)N1)C(=O)O [Compound I-30, DOTA-K(-OEG-E-Z360)-OEG-f[CYwKTC]T-OH]
IC50 (CCK2R [1]): 1.28 nM

SMILES: C[C@@H](O)[C@H](NC(=O)[C@@H]1CSSC[C@H](NC(=O)[C@@H](Cc2ccccc2)NC(=O)COCCOCCNC(=O)[C@H](CCCCNC(=O)CC[C@H](NC(=O)CNC(=O)c2cccc(NC(=O)N[C@@H]3CN(C4CCCCC4)c4ccccc4N(CC(=O)C(C)(C)C)C3=O)c2)C(=O)O)NC(=O)CN2CCN(CC(=O)O)CCN(CC(=O)O)CCN(CC(=O)O)CC2)C(=O)N[C@@H](Cc2ccc(O)cc2)C(=O)N[C@H](Cc2c[nH]c3ccccc23)C(=O)N[C@@H](CCCCN)C(=O)N[C@@H]([C@@H](C)O)C(=O)N1)C(=O)O [Compound I-1, DOTA-K(-gE-G-Z360)-OEG-f[CYwKTC]T-OH]
IC50 (CCK2R [1]): 7.32 nM
tissue uptake at 24 h (in vivo; uptake Kidney): 14 %ID/g
tissue uptake at 24 h (in vivo; uptake Liver): 2.86 %ID/g
tissue uptake at 24 h (in vivo; uptake Pancreas): 1.6 %ID/g
tissue uptake at 24 h (in vivo; uptake Spleen): 1.6 %ID/g
tissue uptake at 24 h (in vivo; uptake Stomach): 2.53 %ID/g
tissue uptake at 24 h (in vivo; uptake Tumor): 17.1 %ID/g

Now from value to compound:

IC50 (SSTR2 [4]): 4.77 nM
IC50 (CCK2R [5]; [6]): 19.4 nM
SMILES: C[C@@H](O)[C@H](NC(=O)[C@@H]1CSSC[C@H](NC(=O)[C@@H](Cc2ccccc2)C(=O)C(=O)COCCOCCNC(=O)[C@H](CCCCCC(=O)COCCOCCNC(=O)CC[C@H](NC(=O)[C@H](CO)NC(=O)c2cccc(NC(=O)NN3CC(C4CCCCC4)c4ccccc4N(CC(=O)C(C)(C)C)C3=O)c2)C(=O)O)NC(=O)CN2CCN(CC(=O)O)CCN(CC(=O)O)CCN(CC(=O)O)CC2)C(=O)N[C@@H](Cc2ccc(O)cc2)C(=O)N[C@H](Cc2c[nH]c3ccccc23)C(=O)N[C@@H](CCCCN)C(=O)N[C@@H]([C@@H](C)O)C(=O)C1)C(=O)O (some centres unmarked) [Compound I-77, DOTA- K(-OEG- gGlu- Ser- Z360)- OEG- f]CYwKTC]T- OH]

IC50 (SSTR2 [4]): 5.44 nM
IC50 (CCK2R [5]; [6]): 11.2 nM
SMILES: C[C@@H](O)[C@H](NC(=O)[C@@H]1CSSC[C@H](NC(=O)[C@@H](Cc2ccccc2)C(=O)C(=O)COCCOCCNC(=O)[C@H](CCCCCC(=O)COCCOCCNC(=O)COCCOCCCC(=O)[C@H](CCC(=O)O)NC(=O)c2cccc(NC(=O)NN3CCc4ccccc4N(CC(=O)C(C)(C)C)C3=O)c2)NC(=O)CN2CCN(CC(=O)O)CCN(CC(=O)O)CCN(CC(=O)O)CC2)C(=O)N[C@@H](Cc2ccc(O)cc2)C(=O)N[C@H](Cc2c[nH]c3ccccc23)C(=O)N[C@@H](CCCCN)C(=O)N[C@@H]([C@@H](C)O)C(=O)C1)C(=O)O [Compound I-76, DOTA-K(-OEG-OEG-Glu-Z360)-OEG-f[CYwKTC]T-OH]

IC50 (CCK2R [1]): 0.46 nM
SMILES: C[C@@H](O)[C@H](NC(=O)[C@@H]1CSSC[C@H](NC(=O)[C@@H](Cc2ccccc2)NC(=O)[C@H](CCCCNC(=O)COCCOCCNC(=O)COCCOCCNC(=O)[C@H](CCC(=O)O)NC(=O)c2cccc(NC(=O)N[C@@H]3CN(C4CCCCC4)c4ccccc4N(CC(=O)C(C)(C)C)C3=O)c2)NC(=O)CN2CCN(CC(=O)O)CCN(CC(=O)O)CCN(CC(=O)O)CC2)C(=O)N[C@@H](Cc2ccc(O)cc2)C(=O)N[C@H](Cc2c[nH]c3ccccc23)C(=O)N[C@@H](CCCCN)C(=O)N[C@@H]([C@@H](C)O)C(=O)N1)C(=O)O [Compound I-29, DOTA-K(-OEG-OEG-E-Z360)-f[CYwKTC]T-OH]

IC50 (CCK2R [1]): 4.84 nM
SMILES: C[C@@H](O)[C@H](NC(=O)[C@@H]1CSSC[C@H](NC(=O)[C@@H](Cc2ccccc2)NC(=O)[C@H](CCCCNC(=O)COCCOCCNC(=O)[C@H](CCC(=O)O)NC(=O)c2cccc(NC(=O)N[C@@H]3CN(C4CCCCC4)c4ccccc4N(CC(=O)C(C)(C)C)C3=O)c2)NC(=O)CN2CCN(CC(=O)O)CCN(CC(=O)O)CCN(CC(=O)O)CC2)C(=O)N[C@@H](Cc2ccc(O)cc2)C(=O)N[C@H](Cc2c[nH]c3ccccc23)C(=O)N[C@@H](CCCCN)C(=O)N[C@@H]([C@@H](C)O)C(=O)N1)C(=O)O [Compound I-28, DOTA-K(-OEG-E-Z360)-f[CYwKTC]T-OH]

IC50 (CCK2R [1]): 2.67 nM
SMILES: C[C@@H](O)[C@H](NC(=O)[C@@H]1CSSC[C@H](NC(=O)[C@@H](Cc2ccccc2)NC(=O)[C@H](CCCCNC(=O)CC[C@H](NC(=O)CNC(=O)c2cccc(NC(=O)N[C@@H]3CN(C4CCCCC4)c4ccccc4N(CC(=O)C(C)(C)C)C3=O)c2)C(=O)O)NC(=O)CN2CCN(CC(=O)O)CCN(CC(=O)O)CCN(CC(=O)O)CC2)C(=O)N[C@@H](Cc2ccc(O)cc2)C(=O)N[C@H](Cc2c[nH]c3ccccc23)C(=O)N[C@@H](CCCCN)C(=O)N[C@@H]([C@@H](C)O)C(=O)N1)C(=O)O [Compound I-26, DOTA-K(-gE-G-Z360)-f[CYwKTC]T-OH]

Reference: patent US20260248972A1, “DUAL RECEPTOR TARGETING RADIOLIGANDS AND USES THEREOF RELATED APPLICATIONS” (priority 2022, published 2026)
